Laboratory results published in patent publication US4446151A, “Decarboxylase-inhibiting fluorinated pentane diamine derivatives” (Merrell Toraude et Compagnie, priority 1982, dated 1984).

Biological target: T1, ornithine decarboxylase (ODC) (Rattus norvegicus, UniProt P09057)
T1 construct: is prepared from the livers of rats which have been injected with thioacetamide; from tissue; host or cells: liver of rats injected with thioacetamide (150 mg/kg, 18 h before sacrifice); purified about ten fold by acid treatment at pH 4.6
T1 sequence (P09057 1-461): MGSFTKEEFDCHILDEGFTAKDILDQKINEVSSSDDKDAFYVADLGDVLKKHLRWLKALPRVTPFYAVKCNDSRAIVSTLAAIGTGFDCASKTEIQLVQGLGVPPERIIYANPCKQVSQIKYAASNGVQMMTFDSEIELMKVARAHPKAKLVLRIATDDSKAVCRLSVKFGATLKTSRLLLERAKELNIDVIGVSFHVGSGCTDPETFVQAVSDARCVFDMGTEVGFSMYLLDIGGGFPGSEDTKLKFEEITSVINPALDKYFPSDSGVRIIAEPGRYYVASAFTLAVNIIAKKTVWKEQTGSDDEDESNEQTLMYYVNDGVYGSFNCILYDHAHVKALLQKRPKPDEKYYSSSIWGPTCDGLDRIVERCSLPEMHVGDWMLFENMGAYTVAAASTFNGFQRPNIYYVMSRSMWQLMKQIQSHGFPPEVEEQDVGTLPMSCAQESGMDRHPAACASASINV
Experiment: in vitro inhibition (time-dependent inactivation) of ornithine decarboxylase (ODC) prepared from rat liver
Format: biochemical
Conditions: 37° C.; for .tau.50 (half-life, at infinite concentration of inhibitor): pH 7.1, Kitz and Wilson; for Half-life (t1/2) at 10 μM: inhibitor at 10 μM, pH 7.1
Description: At different times 50 μl aliquots are transferred into a 1 mL assay medium containing sodium phosphate (30 mM, pH 7.1), dithiothreitol (5 mM), pyridoxal phosphate (0.1 mM), L-ornithine (0.081 μmol), and DL-[1-^14 C]ornithine (0.043 μmol, 58 Ci/mol, Amersham) in a closed vessel in which a filter paper moistered with 50 μl hyamine hydroxide (1M) is fitted. The reaction is allowed to proceed for 60 min at 37° C. and then terminated by addition of 0.5 ml of 40% trichloroacetic acid. After an additional 30 min, the CO2 absorbed on the filter paper is counted in a standard scintillation cocktail.

Structure (SMILES) | .tau.50 (half-life, at infinite concentration of inhibitor) | Half-life (t1/2) at 10 μM
NCC(=O)CC(N)(CF)C(=O)O (stereo not shown) [A, 2-fluoromethyl-2,5-diamino-4-oxo-pentanoic acid] | 3.1 min | 4.5 min
C=C(CN)CC(N)CF (stereo not shown) [B, 1-fluoro-2,5-diamino-4-methylene-pentane] | 2.6 min | 6.4 min
NCC(=O)CC(N)CF (stereo not shown) [C, 1-fluoro-2,5-diamino-4-oxo-pentane] | 1.6 min | 2.8 min
C=C(CN)CC(N)(CF)C(=O)O (stereo not shown) [D, 2-fluoromethyl-2,5-diamino-4-methylene-pentanoic acid] | 3.6 min | 23 min
C=C(CN)CC(N)C(F)F (stereo not shown) [E, 1,1-difluoro-2,5-diamino-4-methylene-pentane] | 2.2 min | 14 min
